Data published in ChEMBL document CHEMBL1201862, “PubChem BioAssay data set” (2004).
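The compound was tested at five concentrations on cells cultured in 96-well plates, with a 48-hour exposure period. Abbreviation: GI50, concentration required for 50% inhibition of growth.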 Activity calls are given as the source filed them. No stated cut-off is given here; in the data, active = GI50 up to about 1.1 µM and inactive = higher.

Key:
Experiment in all cases: NCI tumour cell line growth inhibition, 48 h
HT-29 = tested on: HT-29
OVCAR-8 = tested on: OVCAR-8
CAKI-1 = tested on: CAKI-1
NCI/ADR-RES = tested on: NCI/ADR-RES
EKVX = tested on: EKVX
K562 = tested on: K562
MCF7 = tested on: MCF7
UO-31 = tested on: UO-31
SF-268 = tested on: SF-268
RPMI-8226 = tested on: RPMI-8226
UACC-62 = tested on: UACC-62
HCT-15 = tested on: HCT-15
OVCAR-4 = tested on: OVCAR-4
SK-OV-3 = tested on: SK-OV-3
A498 = tested on: A498
NCI-H226 = tested on: NCI-H226
HOP-62 = tested on: HOP-62
SW-620 = tested on: SW-620
HL-60 = tested on: HL-60
NCI-H522 = tested on: NCI-H522
KM-20L2 = tested on: KM-20L2
NCI-H460 = tested on: NCI-H460
SK-MEL-5 = tested on: SK-MEL-5
SNB-78 = tested on: SNB-78
MOLT-4 = tested on: MOLT-4
SNB-75 = tested on: SNB-75
U-251 = tested on: U-251
HCT-116 = tested on: HCT-116
DMS-273 = tested on: DMS-273
DLD-1 = tested on: DLD-1
OVCAR-3 = tested on: OVCAR-3
UACC-257 = tested on: UACC-257
HOP-18 = tested on: HOP-18
Malme-3M = tested on: Malme-3M
HCC 2998 = tested on: HCC 2998
SF-295 = tested on: SF-295
SF-539 = tested on: SF-539
CCRF-CEM = tested on: CCRF-CEM
SK-MEL-28 = tested on: SK-MEL-28
KM12 = tested on: KM12
XF498 = tested on: XF498
COLO 205 = tested on: COLO 205
SK-MEL-2 = tested on: SK-MEL-2
OVCAR-5 = tested on: OVCAR-5
LOX IMVI = tested on: LOX IMVI
SN12C = tested on: SN12C
M19-MEL = tested on: M19-MEL
RXF 393 = tested on: RXF 393
DMS-114 = tested on: DMS-114
HOP-92 = tested on: HOP-92
SNB-19 = tested on: SNB-19
NCI-H23 = tested on: NCI-H23
A549 = tested on: A549
IGROV-1 = tested on: IGROV-1

Measured: GI50

O=C1C(CO)=C[C@H](O)[C@H]2O[C@@H]12
inactive: HT-29 260 µM | OVCAR-8 137 µM | CAKI-1 253 µM | NCI/ADR-RES 162 µM | EKVX 121 µM | K562 163 µM | MCF7 126 µM | UO-31 267 µM | SF-268 125 µM | RPMI-8226 > 96.8 µM | UACC-62 113 µM | OVCAR-4 130 µM | SK-OV-3 330 µM | A498 234 µM | NCI-H226 194 µM | HOP-62 497 µM | SW-620 126 µM | HL-60 78.3 µM | NCI-H522 88.7 µM | KM-20L2 337 µM | NCI-H460 199 µM | SK-MEL-5 202 µM | SNB-78 186 µM | MOLT-4 133 µM | SNB-75 335 µM | U-251 171 µM | HCT-116 104 µM | DMS-273 185 µM | DLD-1 113 µM | OVCAR-3 177 µM | UACC-257 158 µM | HOP-18 > 625 µM | Malme-3M 137 µM | HCC 2998 311 µM | SF-295 84.9 µM | SF-539 242 µM | CCRF-CEM 74.8 µM | SK-MEL-28 136 µM | KM12 83.9 µM | XF498 177 µM | COLO 205 111 µM | SK-MEL-2 130 µM | OVCAR-5 264 µM | LOX IMVI 136 µM | SN12C 128 µM | M19-MEL 120 µM | RXF 393 153 µM | DMS-114 137 µM | HOP-92 283 µM | SNB-19 419 µM | NCI-H23 238 µM | A549 318 µM | IGROV-1 182 µM
124 µM: HCT-15

CC1=NN(C(=O)c2ccc(C)cc2)C(=O)C1/N=N/c1ccccc1C(=O)O (configuration not stated)
inactive: HT-29 > 32.1 µM | OVCAR-8 > 74.5 µM | CAKI-1 > 100 µM | NCI/ADR-RES > 100 µM | EKVX > 100 µM | K562 66.4 µM | MCF7 > 100 µM | UO-31 > 100 µM | SF-268 > 100 µM | RPMI-8226 95.7 µM | UACC-62 > 100 µM | OVCAR-4 > 100 µM | SK-OV-3 > 100 µM | NCI-H226 > 100 µM | HOP-62 > 100 µM | SW-620 > 100 µM | HL-60 > 62.7 µM | NCI-H522 29.6 µM | KM-20L2 > 100 µM | NCI-H460 > 100 µM | SK-MEL-5 > 100 µM | SNB-78 > 94 µM | MOLT-4 > 73.8 µM | SNB-75 > 37.7 µM | U-251 85.7 µM | HCT-116 > 100 µM | DMS-273 > 100 µM | DLD-1 > 100 µM | OVCAR-3 > 89.1 µM | UACC-257 > 100 µM | HOP-18 > 100 µM | Malme-3M > 100 µM | HCC 2998 > 100 µM | SF-295 > 92.3 µM | SF-539 > 100 µM | CCRF-CEM 53.7 µM | SK-MEL-28 > 100 µM | KM12 > 100 µM | XF498 61.8 µM | COLO 205 > 100 µM | SK-MEL-2 > 100 µM | OVCAR-5 > 100 µM | LOX IMVI > 100 µM | SN12C > 100 µM | M19-MEL > 100 µM | RXF 393 > 100 µM | DMS-114 > 100 µM | HOP-92 > 79.8 µM | SNB-19 > 100 µM | NCI-H23 > 100 µM | A549 > 100 µM | IGROV-1 > 100 µM
52.6 µM: HCT-15
